Assay results published in patent US20250387388A1, “COMPOUND AS TRK INHIBITOR AND/OR RET INHIBITOR AND USE THEREOF” (Medinno Pharmaceutical Technology (Zhuhai) Co., Ltd., priority 2022, published 2025).
Like-named read-outs stand apart in the source and are kept apart here.

What was measured:
TRKB = TRKB (Homo sapiens (Human), UniProt Q16620); assay: Inhibitory activity on TRKB (ADP-Glo Kinase Assay)
RET = RET (Homo sapiens (Human), UniProt P07949); assay: Inhibitory activity on RET kinase (HTRF KinEASE-TK); type: biochemical; conditions: ATP 16 μM
From the text: 3) Formulate 2.5× kinase with 1× kinase reaction buffer.

TRKA [1] = target: T1, TRKA (Homo sapiens (Human), UniProt P04629); assay: Inhibitory activity on TRKA (ADP-Glo Kinase Assay)
TRKC = TRKC (Homo sapiens (Human), UniProt Q16288); assay: Inhibitory activity on TRKC (ADP-Glo Kinase Assay)
TRKA [2] = target: T1, TRKA; conditions: reported; cited from earlier work
JAK3 = JAK3 (Homo sapiens (Human), UniProt P52333); conditions: reported; cited from earlier work
[3] = system: ovalbumin-induced asthma model in mice; assay: Ovalbumin-induced asthma model in mice; type: in vivo, Balb/c mice; conditions: nasal administration BID 5 days: MDI-1228 3 mg/kg, MDI-1288 3 mg/kg, MDI-1233 1, 3, 10 mg/kg
Experimental: After 7 days of acclimatization, animals were randomly grouped based on their body weight. The experiment was divided into 8 groups, with 8 mice in each group, as detailed in the table below.
• Preparation of Immunogen: Weigh an appropriate amount of OVA, to which an appropriate amount of PBS was added, to achieve a final concentration of 0.1 mg/ml. Then, an equal volume of aluminum adjuvant was added, and the resulting mixture was mixed well, and stored at 4° C., which was prepared before use. • Preparation of Sensitizer (5% OVA): Weigh an appropriate amount of OVA, to which an appropriate amount of PBS was added, to achieve a final concentration of 5%. The resulting mixture was mixed well, and store it at 4° C. for later use, which was prepared before use. • Preparation of Vehicle: Add 200 μl of Tween 80 to 100 ml of saline, and mix it well. […] Mix it well, and store it at 4° C. for later use. […] Mix it well, and store it at 4° C. for later use. […] Mix it well, and store it at 4° C. for later use. The solution was prepared once every three days.
• Immunization: On days 0, 7, 14, and 21, 200 μl of PBS was injected intraperitoneally for the first group, and 200 μl of (10 μg) OVA/aluminum adjuvant emulsion was injected intraperitoneally for groups 2-8. • Sensitization: From days 28 to 32, the first group of animals was exposed to nebulized PBS in a nebulization box for 20 minutes, and the groups 2-8 were exposed to nebulized 5% OVA in a nebulization box for 20 minutes. And then, they were removed. The sensitization was conducted at 12:30 PM daily. • Administration: The medicine was administrated twice a day at 9 AM and 5 PM via nasal drops. Dexamethasone (Dex) was administered by gavage once a day at 9 AM.
Serum IgE: Blood was collected from the orbits of animals after carbon dioxide euthanasia, and plasma was separated and stored at −40 degrees for plasma IgE detection.
Bronchoalveolar Lavage Fluid (BALF) Cell Count: An appropriate amount of foetal bovine serum was weighted and dissolved in PBS to a final concentration of 1%. After orbital blood collection, the trachea was exposed, and a 1 ml syringe needle was replaced with a mouse gavage needle. 0.8 ml of the lavage fluid was aspirated from the syringe and the lungs were lavaged three times. The lavage fluids were collected, and centrifuged at 1000 rpm for 10 minutes, and the supernatant was collected and stored at −40 degrees Celsius. Cells were resuspended with 1 ml of PBS and counted. 100 ul of centrifuged smear was taken and stained with Diff quick and the number of eosinophils, basophils, lymphocytes and macrophages were recorded.
Bronchoalveolar Lavage Fluid IL-5: Bronchoalveolar lavage fluid was collected to detect IL-5.
Pathological scoring criteria were: • A) 0 points: No lymphocyte infiltration; • B) 1 point: Trace lymphocyte infiltration; • C) 2 points: Mild lymphocyte infiltration; • D) 3 points: Moderate lymphocyte infiltration; • E) 4 points: Severe lymphocyte infiltration; • After scoring, the results were calculated and analyzed.

[4] = system: allergic rhinitis model in mice; assay: Allergic rhinitis model in mice (OVA); type: in vivo, BALB/C mice; conditions: for Rhinitis behavioral scoring: 7-day treatment, MDI-1233 10 mg/kg, MDI-1228 3 mg/kg, fluticasone propionate positive control
Experimental: 42-49 day-old BALB/C mice (Manufacturer: Liaoning Changsheng Biotechnology Co., Ltd., License Number: SCXK(therapeutic)2015-0001), both male and female, were reared under conventional diet, at a temperature of 20 to 26° C., and a humidity of 40% to 70%. Animal grouping and modeling: • 1. Blank control group (no treatment) • 2. Allergic rhinitis group (vehicle treatment: saline containing 0.2% Tween 80) • 3. Allergic rhinitis+compound MDI-1233: 1 mg/kg • 4. Allergic rhinitis+compound MDI-1233: 3 mg/kg • 5. Allergic rhinitis+compound MDI-1233: 10 mg/kg • 6. Allergic rhinitis+compound MDI-1228: 3 mg/kg • 7. Allergic rhinitis+compound MDI-1288: 3 mg/kg • 8. Allergic rhinitis+positive control group (Fluticasone propionate, GlaxoSmithKline, E88D
The preparation of an AR model in mice involved sensitizing and challenging BALB/c mice with ovalbumin (OVA) to simulate an acute symptoms caused by natural exposure to an allergen. The experimental animals were weighed and separated by gender. Sensitization was performed on days 1, 5, 9, and 12. From day 13, a daily challenge was carried out for 7 consecutive days. After the last challenge, behavior of the mice was observed and scored. The sensitization method involved intraperitoneal injection of an OVA (Sigma, A5503-1G) suspension in 50 μg/ml in which the OVA suspension was prepared by dissolving 500 μg of ovalbumin and 50 mg of AL(OH)3 (CAS 21645-51-2) into 10 ml of normal saline, pH 7.4, with 200 μl injected per mouse. […] On day 12, a single nasal challenge with 10% OVA was performed (PBS was used for the control group). Scoring was conducted according to the table below, using a superposition method to calculate the total score. A total score greater than 5 was considered as successful. Subsequent experiments were conducted after the modeling was deemed successful.
From day 13, compound administration and challenge were conducted. The compound administration method involved calculating the nasal drops volume according to the mouse's body weight and group requirements, and dissolving the compounds MDI-1233, MDI-1228, MDI-1288 into normal saline containing 0.2% Tween 80 at specific concentrations. The administration was given 30 minutes before the challenge, twice a day. The positive control treatment involved administering nasal drop once (10 μl per side) 30 minutes before OVA nasal stimulation, twice a day. Thirty minutes after the second drug administration, a 10% OVA challenge was conducted, and the amount of nasal discharge, sneezing, and nose scratching were observed and recorded within 30 minutes after each challenge and then scored. The control group was treated with normal saline nasal drops.
After the rhinitis modeling was completed and the scores were stable, mice of each group were anesthetized and sacrificed after a 20-day scoring. Samples were collected, and peripheral serum was obtained by collecting whole blood, and standing it at room temperature for 1 hour and then centrifuging it to collect the supernatant for ELISA detection; nasal mucosa was taken for HE staining (fixed with 10% formalin); and the supernatant of nasal lavage fluid was taken for ELISA detection.
(1) HE Staining: The tissue was rinsed with running water for several hours, dehydrated through a series of ethanol solutions (70%, 80%, 90%), and then treated with a mixture of pure alcohol and xylene for 15 minutes, followed by xylene I for 15 minutes and xylene I1 for 15 minutes (until transparent). The tissue was then placed in a mixture of xylene and paraffin at a volume ratio of 1:1 for 15 minutes, followed by immersion with paraffin I and paraffin II each for 50-60 minutes. The tissue was embedded in paraffin and sectioned, and the sections were spreaded, dried, dewaxed and hydrated in distilled water. […]

[5] = system: atopic dermatitis/eczema in mice; assay: Atopic dermatitis/eczema model in mice (dust mite extract + SEB); type: in vivo; conditions: for Number of Scratch Incidents (±SE) / Scratch Duration (±SE) / Skin Erythema, Hemorrhage, Eruption, and Desquamation (Lesion Scoring) (Mean ± SE): Tofacitinib 10 mg/kg
adipocytes = assay: Lipolysis in vitro in adipocytes; type: cell-based, C57BL/6 mouse
Experimental: Newly extracted neonatal C57BL/6 mouse skin fibroblasts (specific operational steps can be found in the literature: Cell Reports (2023)/doi: 10.1016/j.celrep.2023.112647) were plated and cultured in petri dishes until the cell density reached the highest and contact inhibition. Differentiation medium (DMEM+10% FBS+1× antibiotic; specific formula can be found in the literature: Cell Reports (2023)/doi: 10.1016/j.celrep.2023.112647) was then added to induce the generation of new adipocytes. […] The control group received an equal volume of DMSO. The transformation of adipocytes was observed using a Leica inverted phase contrast microscope.

[6] = vs. vehicle (model) group, dexamethasone 1 mg/kg gavage QD
[7] = nasal drops twice a day, MDI-1288 3 mg/kg

TRKB, sequence (Q16620 32-822): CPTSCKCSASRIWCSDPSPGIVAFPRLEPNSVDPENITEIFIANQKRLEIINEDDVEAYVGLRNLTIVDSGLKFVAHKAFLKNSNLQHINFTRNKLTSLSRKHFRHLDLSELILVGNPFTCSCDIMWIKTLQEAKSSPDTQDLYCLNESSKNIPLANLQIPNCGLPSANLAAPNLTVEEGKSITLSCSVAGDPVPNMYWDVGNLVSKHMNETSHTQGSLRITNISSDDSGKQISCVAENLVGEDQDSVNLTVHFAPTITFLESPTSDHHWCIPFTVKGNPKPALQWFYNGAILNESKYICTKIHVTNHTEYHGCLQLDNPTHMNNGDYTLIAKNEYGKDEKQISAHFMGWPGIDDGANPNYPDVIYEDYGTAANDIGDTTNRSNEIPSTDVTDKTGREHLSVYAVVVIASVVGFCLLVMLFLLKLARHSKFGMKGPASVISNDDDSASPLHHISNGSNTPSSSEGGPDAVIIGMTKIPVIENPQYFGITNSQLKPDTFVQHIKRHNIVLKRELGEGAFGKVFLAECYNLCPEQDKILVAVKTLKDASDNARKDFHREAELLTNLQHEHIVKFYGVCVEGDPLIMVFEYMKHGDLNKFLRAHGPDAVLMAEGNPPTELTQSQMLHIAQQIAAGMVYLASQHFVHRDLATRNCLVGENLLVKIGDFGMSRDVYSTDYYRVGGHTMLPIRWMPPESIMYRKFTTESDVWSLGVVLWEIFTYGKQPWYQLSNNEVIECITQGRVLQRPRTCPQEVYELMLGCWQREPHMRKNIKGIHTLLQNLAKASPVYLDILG
T1 sequence (P04629 33-796 limits assumed): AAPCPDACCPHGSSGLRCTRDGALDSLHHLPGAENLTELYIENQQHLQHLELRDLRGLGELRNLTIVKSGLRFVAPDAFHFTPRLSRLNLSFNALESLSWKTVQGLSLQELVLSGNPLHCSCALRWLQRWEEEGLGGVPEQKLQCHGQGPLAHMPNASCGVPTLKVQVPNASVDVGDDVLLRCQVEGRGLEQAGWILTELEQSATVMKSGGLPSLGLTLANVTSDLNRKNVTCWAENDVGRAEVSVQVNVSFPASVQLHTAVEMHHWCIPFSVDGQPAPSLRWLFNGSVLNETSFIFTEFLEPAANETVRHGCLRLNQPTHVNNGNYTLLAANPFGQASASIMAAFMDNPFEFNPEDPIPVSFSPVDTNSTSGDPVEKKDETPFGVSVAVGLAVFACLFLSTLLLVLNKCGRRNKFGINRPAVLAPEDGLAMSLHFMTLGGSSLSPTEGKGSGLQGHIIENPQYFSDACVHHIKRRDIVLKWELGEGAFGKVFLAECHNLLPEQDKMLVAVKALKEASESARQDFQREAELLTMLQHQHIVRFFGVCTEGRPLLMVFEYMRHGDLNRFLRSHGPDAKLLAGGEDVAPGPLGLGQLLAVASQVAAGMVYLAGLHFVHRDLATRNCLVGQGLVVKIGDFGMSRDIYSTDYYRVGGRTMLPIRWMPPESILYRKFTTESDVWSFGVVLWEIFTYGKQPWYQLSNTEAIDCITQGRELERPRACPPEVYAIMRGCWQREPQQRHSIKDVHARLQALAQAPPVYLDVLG
RET, sequence (P07949 29-1114): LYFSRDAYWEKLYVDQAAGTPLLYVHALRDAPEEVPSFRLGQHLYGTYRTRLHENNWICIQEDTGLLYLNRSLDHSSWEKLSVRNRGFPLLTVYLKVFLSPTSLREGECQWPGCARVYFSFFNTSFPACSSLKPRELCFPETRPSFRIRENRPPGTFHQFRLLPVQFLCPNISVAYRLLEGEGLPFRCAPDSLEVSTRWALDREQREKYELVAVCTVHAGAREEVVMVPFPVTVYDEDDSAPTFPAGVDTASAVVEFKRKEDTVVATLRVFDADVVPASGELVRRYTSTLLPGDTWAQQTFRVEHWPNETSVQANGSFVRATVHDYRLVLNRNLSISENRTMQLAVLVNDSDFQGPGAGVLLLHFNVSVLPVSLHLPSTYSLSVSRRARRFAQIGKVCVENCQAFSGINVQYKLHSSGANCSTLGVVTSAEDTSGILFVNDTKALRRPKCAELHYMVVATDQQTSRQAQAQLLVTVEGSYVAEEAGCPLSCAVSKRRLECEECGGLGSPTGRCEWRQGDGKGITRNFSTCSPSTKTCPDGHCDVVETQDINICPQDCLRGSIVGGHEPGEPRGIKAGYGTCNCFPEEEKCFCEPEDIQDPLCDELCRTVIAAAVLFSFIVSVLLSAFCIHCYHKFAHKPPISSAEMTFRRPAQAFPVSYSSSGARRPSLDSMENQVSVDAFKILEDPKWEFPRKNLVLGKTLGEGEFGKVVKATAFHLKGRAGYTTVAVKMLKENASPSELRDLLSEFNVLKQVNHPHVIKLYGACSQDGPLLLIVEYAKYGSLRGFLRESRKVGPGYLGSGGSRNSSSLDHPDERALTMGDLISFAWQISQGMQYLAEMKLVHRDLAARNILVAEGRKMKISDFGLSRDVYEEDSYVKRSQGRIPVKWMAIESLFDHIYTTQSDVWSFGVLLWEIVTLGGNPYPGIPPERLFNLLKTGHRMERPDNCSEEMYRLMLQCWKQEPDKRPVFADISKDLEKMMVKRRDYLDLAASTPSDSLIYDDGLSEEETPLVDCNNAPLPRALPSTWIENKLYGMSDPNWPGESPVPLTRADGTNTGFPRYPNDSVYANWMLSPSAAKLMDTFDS
TRKC, sequence (Q16288 32-839): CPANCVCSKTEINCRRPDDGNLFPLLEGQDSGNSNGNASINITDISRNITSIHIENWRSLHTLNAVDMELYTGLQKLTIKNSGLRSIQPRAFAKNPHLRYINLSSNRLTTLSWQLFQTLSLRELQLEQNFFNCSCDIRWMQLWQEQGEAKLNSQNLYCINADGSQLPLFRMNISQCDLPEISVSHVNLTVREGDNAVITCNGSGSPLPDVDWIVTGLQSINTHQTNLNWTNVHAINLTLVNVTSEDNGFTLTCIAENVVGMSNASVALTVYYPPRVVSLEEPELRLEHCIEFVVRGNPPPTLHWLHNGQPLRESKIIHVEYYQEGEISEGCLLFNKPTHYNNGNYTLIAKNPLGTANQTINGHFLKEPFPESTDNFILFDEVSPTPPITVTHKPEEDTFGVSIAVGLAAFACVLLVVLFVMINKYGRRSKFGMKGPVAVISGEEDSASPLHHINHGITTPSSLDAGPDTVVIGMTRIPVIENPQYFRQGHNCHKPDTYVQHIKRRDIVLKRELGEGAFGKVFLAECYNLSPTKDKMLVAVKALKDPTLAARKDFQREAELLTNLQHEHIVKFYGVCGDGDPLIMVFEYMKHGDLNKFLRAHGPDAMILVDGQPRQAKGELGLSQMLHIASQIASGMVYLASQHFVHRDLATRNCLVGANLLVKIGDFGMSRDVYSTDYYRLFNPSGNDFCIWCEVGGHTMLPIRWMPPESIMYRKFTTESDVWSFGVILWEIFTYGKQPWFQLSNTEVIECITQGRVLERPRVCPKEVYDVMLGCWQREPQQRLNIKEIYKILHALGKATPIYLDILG
JAK3, sequence (P52333 whole entry, species assumed): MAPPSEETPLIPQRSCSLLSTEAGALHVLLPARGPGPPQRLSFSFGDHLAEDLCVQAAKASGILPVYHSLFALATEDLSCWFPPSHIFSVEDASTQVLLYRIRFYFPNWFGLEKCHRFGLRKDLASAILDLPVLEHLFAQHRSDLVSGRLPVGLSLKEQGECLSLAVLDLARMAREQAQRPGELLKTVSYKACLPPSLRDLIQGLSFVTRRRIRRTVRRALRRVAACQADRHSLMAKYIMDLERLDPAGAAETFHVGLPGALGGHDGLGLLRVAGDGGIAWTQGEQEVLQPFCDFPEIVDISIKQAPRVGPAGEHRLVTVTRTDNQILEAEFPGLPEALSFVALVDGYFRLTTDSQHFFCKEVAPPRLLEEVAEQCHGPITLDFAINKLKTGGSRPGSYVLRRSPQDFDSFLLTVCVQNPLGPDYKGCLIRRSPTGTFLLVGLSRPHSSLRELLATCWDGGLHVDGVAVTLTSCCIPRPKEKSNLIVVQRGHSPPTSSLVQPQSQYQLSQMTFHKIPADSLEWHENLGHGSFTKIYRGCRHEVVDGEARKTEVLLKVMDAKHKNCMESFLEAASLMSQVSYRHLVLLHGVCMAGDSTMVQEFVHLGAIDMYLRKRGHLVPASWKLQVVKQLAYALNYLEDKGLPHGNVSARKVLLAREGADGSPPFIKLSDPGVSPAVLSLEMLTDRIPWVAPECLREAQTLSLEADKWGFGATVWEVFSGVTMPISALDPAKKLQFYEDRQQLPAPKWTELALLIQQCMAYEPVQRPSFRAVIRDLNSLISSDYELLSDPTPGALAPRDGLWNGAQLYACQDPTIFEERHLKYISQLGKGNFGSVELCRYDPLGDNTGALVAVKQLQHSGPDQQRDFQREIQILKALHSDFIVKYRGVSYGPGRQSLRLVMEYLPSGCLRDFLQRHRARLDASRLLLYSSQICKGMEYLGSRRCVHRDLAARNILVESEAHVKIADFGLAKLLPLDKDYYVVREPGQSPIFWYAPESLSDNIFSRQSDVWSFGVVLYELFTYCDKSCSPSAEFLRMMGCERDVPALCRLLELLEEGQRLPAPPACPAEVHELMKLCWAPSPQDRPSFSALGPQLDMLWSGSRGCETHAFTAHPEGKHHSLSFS

Question: Which IC50 (TRKB) does the source give for CCc1cc(O)c(F)cc1-c1ccc2c(-c3nc4c([nH]3)CN(C(=O)N3CCC(O)CC3)C4)n[nH]c2c1 [MDI-245, (2-(6-(2-ethyl-5-fluoro-4-hydroxyphenyl)-1H-indazol-3-yl)-4,6-dihydropyrrolo[3,4-d]imidazol-5(1H)-yl)(4-hydroxylpiperidin-1-yl)ketone] here?
Answer: 3.37 nM

Question: What about the IC50 (RET) of the same compound?
Answer: 0.99 nM

Question: What about the IC50 (TRKA [1]) of the same compound?
Answer: 0.83 nM

Question: And the IC50 (TRKC)?
Answer: 0.57 nM

Question: For CCNC(=O)N1Cc2nc(-c3n[nH]c4cc(-c5cc(F)c(O)cc5CC)ccc34)[nH]c2C1 [MDI-247, 2-(6-(2-ethyl-5-fluoro-4-hydroxyphenyl)-1H-indazol-3-yl)-N-ethyl-4,6-dihydropyrrolo[3,4-d]imidazol-5-(1H)-carboxamide], which IC50 (TRKB; read-out: TRKB IC50, ATP 5 μM) is on record?
Answer: 34.2 nM

Question: What about the IC50 (RET) of the same compound?
Answer: 8.36 nM

Question: And the IC50 (TRKA [1]; read-out: TRKA IC50, ATP 5 μM)?
Answer: 10.3 nM

Question: And the IC50 (TRKC; read-out: TRKC IC50, ATP 5 μM)?
Answer: 3.73 nM

Question: Which IC50 (TRKB) does the source give for CCc1cc(O)c(F)cc1-c1ccc2c(-c3nc4c([nH]3)CN(C(=O)N3CCN(C)CC3)C4)n[nH]c2c1 [MDI-235, (2-(6-(2-ethyl-5-fluoro-4-hydroxyphenyl)-1H-indazol-3-yl)-4,6-dihydropyrrolo[3,4-d]imidazol-5-(1H)-yl)(4-methylpiperazin-1-yl)ketone] here?
Answer: 1.39 nM

Question: And the IC50 (RET)?
Answer: 0.1 nM

Question: What about the IC50 (TRKA [1]) of the same compound?
Answer: 0.57 nM

Question: And the IC50 (TRKC)?
Answer: 0.27 nM

Question: For Pegcantratinib, which “Inhibition of TRKA” value (TRKA [2]) is on record?
Answer: capable of inhibiting

Question: What about the “Inhibition of JAK3” value (JAK3) of the same compound?
Answer: capable of inhibiting

Question: Which IC50 (TRKB; read-out: TRKB IC50, ATP 5 μM) does the source give for CCc1cc(O)c(F)cc1-c1ccc2c(-c3nc4c([nH]3)CN(C(=O)C3CC3)C4)n[nH]c2c1 [MDI-1233, cyclopropyl (2-(6-(2-ethyl-5-fluoro-4-hydroxyphenyl)-1H-indazol-3-yl)pyrrolo[3,4-d]imidazol-5(1H,4H,6H)-yl)ketone] here?
Answer: 4.16 nM

Question: And the “Therapeutic effect on the asthma animal model (lung tissue pathological scoring)” value [3]?
Answer: good therapeutic effect

Question: And the “Bronchoalveolar lavage fluid IL-5 expression level” value [3, 6]?
Answer: could reduce IL-5 expression in all three dosage

Question: And the “Inflammatory cell count in bronchoalveolar lavage fluid” value [3, 6]?
Answer: could reduce the Inflammatory Cell Count in all three dosage

Question: And the “Lung tissue inflammatory cell infiltration (HE pathology)” value [3, 6]?
Answer: could reduce the lung tissue inflammatory cell infiltration in all three dosage

Question: What about the “Serum IgE expression level” value [3, 6] of the same compound?
Answer: could reduce IgE expression in all three dosage

Question: What about the IC50 (RET) of the same compound?
Answer: 4.21 nM

Question: And the “Nasal mucosa pathology (HE staining)” value ([4]; MDI-1233 1 mg/kg and 3 mg/kg nasal drops twice a day)?
Answer: still accompanied by bleeding, inflammatory cell infiltration, cilia shedding

Question: What about the “Nasal mucosa pathology (HE staining)” value ([4]; MDI-1233 10 mg/kg nasal drops twice a day) of the same compound?
Answer: the nasal mucosal cilia repair effect was significant

Question: What about the Rhinitis behavioral scoring [4, 7] of the same compound?
Answer: demonstrated inhibitory effects on the male mouse rhinitis model

Question: What about the IC50 (TRKA [1]; read-out: TRKA IC50, ATP 5 μM) of the same compound?
Answer: 12.2 nM

Question: What about the IC50 (TRKC; read-out: TRKC IC50, ATP 5 μM) of the same compound?
Answer: 5.91 nM

Question: With C[C@@H]1CCN(C(=O)CC#N)C[C@@H]1N(C)c1ncnc2[nH]ccc12 [Tofacitinib, reference compound] as the compound, how does the “Number of Scratch Incidents (±SE)” value ([5]; Day 1) read?
Answer: 17.75 ± 0.86

Question: What about the “Scratch Duration (±SE)” value ([5]; Day 1) of the same compound?
Answer: 278.25 ± 50.09

Question: What about the “Skin Erythema, Hemorrhage, Eruption, and Desquamation (Lesion Scoring) (Mean ± SE)” value (“Skin Erythema, Hemorrhage … (Mean ± SE)” below) ([5]; Day 1) of the same compound?
Answer: 4.38 ± 0.46

Question: And the “Skin Erythema, Hemorrhage … (Mean ± SE)” value ([5]; Day 4)?
Answer: 2.63 ± 0.26

Question: And the “Skin Erythema, Hemorrhage … (Mean ± SE)” value ([5]; Day 7)?
Answer: 2.00 ± 0.33

Question: And the “Number of Scratch Incidents (±SE)” value ([5]; Day 14)?
Answer: 26.7 ± 1.96

Question: And the “Scratch Duration (±SE)” value ([5]; Day 14)?
Answer: 217.5 ± 47.85

Question: What about the “Skin Erythema, Hemorrhage … (Mean ± SE)” value ([5]; Day 14) of the same compound?
Answer: 1.50 ± 0.19

Question: And the “Behavioral analysis (scratch incidents and scratch duration)” value ([5]; MDI-1228 high-dose (3% gel), tofacitinib 10 mg/kg)?
Answer: did not show significant effects in the behavioral analysis

Question: What about the “Lipolysis of differentiated mature adipocytes (phase contrast images)” value (adipocytes; 5 μM) of the same compound?
Answer: does not promote lipolysis

Question: What about the “Adipocyte lipolysis in vitro” value (adipocytes; summary statement) of the same compound?
Answer: no similar effect

Question: With CCC(=O)O[C@]1(C(=O)SCF)[C@H](C)C[C@H]2[C@@H]3C[C@H](F)C4=CC(=O)C=C[C@]4(C)[C@@]3(F)[C@@H](O)C[C@@]21C [fluticasone propionate, reference compound] as the compound, how does the “Nasal mucosa pathology (HE staining)” value ([4]; MDI-1288 3 mg/kg, fluticasone propionate 10 μl per side, nasal drops twice a day) read?
Answer: inhibited the progression of rhinitis and promoted repair of cilia on the nasal mucosa

Question: And the Rhinitis behavioral scoring [4, 7]?
Answer: significant effects on inhibiting the rhinitis behavior
